Laboratory results from PubChem BioAssay (NCI).
Where “and” joins values, the source holds several entries; their conditions need not be identical. Identical values can stand only once.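 Values below derive from 48-hour exposures of cells grown in 96-well plates, with endpoints linearly interpolated between the two concentrations bracketing the appropriate inhibition level. At the GI50, growth is halved. TGI marks complete inhibition of growth.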

Columns and labels:
Experiment in all cases: NCI tumour cell line growth inhibition, 48 h
[1] = system: TK-10 renal
[2] = system: EKVX NSCLC
[3] = system: MALME-3M melanoma
[4] = system: M14 melanoma
[5] = system: MDA-MB-231 breast
[6] = system: HCC-2998 colon
[7] = system: HOP-92 NSCLC
[8] = system: MDA-MB-435

| Structure (SMILES) | GI50 [1] | TGI [1] | GI50 [2] | TGI [2] | GI50 [3] | TGI [3] | GI50 [4] | TGI [4] | GI50 [5] | TGI [5] | GI50 [6] | TGI [6] | GI50 [7] | TGI [7] | GI50 [8] | TGI [8] |
| --- | --- | --- | --- | --- | --- | --- | --- | --- | --- | --- | --- | --- | --- | --- | --- | --- |
| O=C(NC1CC1)c1ccc(-c2nc3ccc4[nH]ncc4c3c3c2CCCC3)cc1 | 0.991 µM | 25.6 µM | 1.33 µM | 12.2 µM | 3.46 µM | 11.6 µM | 2.33 µM | 10.4 µM | 2.06 µM | 31.8 µM | 3.27 µM | 10.1 µM | 1.45 µM | 25.2 µM | 1.38 µM | 5.02 µM |
| COc1ccc2nc(-c3ccccc3)cc(Nc3ccc(C(C)=O)cc3)c2c1 | 5.24 µM | 17.2 µM | 5.98 µM | 20.5 µM | 5.28 µM | 18.7 µM | 2.61 µM | 7.25 µM | 0.0369 µM | 2.13 µM | 2.45 µM | 5.27 µM |  |  |  |  |
| N#CCN1CCCCCc2ccccc21 |  | > 100 µM |  | > 100 µM |  | > 100 µM |  | > 100 µM |  | > 100 µM |  | > 100 µM |  | > 100 µM |  | > 100 µM |
| NCCCC(=O)Nc1ccncc1 | > 100 µM | > 100 µM | > 100 µM | > 100 µM | > 100 µM | > 100 µM | > 100 µM | > 100 µM | > 100 µM | > 100 µM | > 100 µM | > 100 µM | > 100 µM | > 100 µM | > 100 µM | > 100 µM |
| N#CC1=C(N)NC(=S)NC12Nc1ccccc1O2 (stereo not drawn) | 42.5 µM | > 100 µM | 62.3 µM | > 100 µM | > 100 µM | > 100 µM | 26 µM | > 100 µM | 19.3 µM | 76.7 µM |  |  | > 100 µM | > 100 µM | 16.8 µM | > 100 µM |
| N#CC1=C(N)N=C(N2CCCCC2)C(C#N)C12Nc1ccccc1S2 (stereo not drawn) | 29.6 µM | > 100 µM | 28.7 µM | 91.1 µM | 47.2 µM | > 100 µM | 19.1 µM | 46.8 µM | 17.1 µM | 58.7 µM |  |  | 26.9 µM | > 100 µM | 0.0184 µM | 14.3 µM |
| c1ccc(C(=NNc2nc3ccccc3o2)c2ccccn2)nc1 | 0.0673 µM | > 100 µM and 17.5 µM | 0.0387 µM |  | 0.134 µM |  | 0.0418 µM |  | 0.0693 µM | 21.6 µM and 17.7 µM | 0.0972 µM | 18.4 µM and 1.96 µM | 0.0751 µM |  | 0.273 µM | 34.6 µM and 28.3 µM |
| CCOC(=O)CCCn1c(SC)nc2cc(-c3ccco3)[nH]c2c1=O | 35.1 µM | > 100 µM | 65.9 µM | > 100 µM | > 100 µM | > 100 µM | > 100 µM | > 100 µM | 28 µM | 81.2 µM | > 100 µM | > 100 µM | 25.6 µM | 65.7 µM | > 100 µM | > 100 µM |
